# According to patent US9260485B2 (priority 2009, dated 2016):
# Tests used:
# Test in all cases: Multidrug resistance-reversing activity: effect on paclitaxel's cytotoxicity
# Format in all cases: cell-based
# HCT15/CL02 = details: Homo sapiens, HCT-15, TAX alone
# Method: (§1) The cyclic pentadepsipeptides of Chemical Formulas 1 and 2 were analyzed for MDR-reversing activity by comparing inhibitory activities against multidrug-resistant cancer cell lines (MES-SA/DX5 and HCT15/CL02) with those against non-multidrug-resistant cancer cell lines (MES-SA and HCT15). In this regard, the effects of the cyclic pentadepsipeptides of Chemical Formulas 1 and 2 on paclitaxel's cytotoxicity against MDR tumor cells were measured (Table 6).
# HCT15 = details: Homo sapiens, HCT-15, TAX alone
# Method: as §1
# MES-SA/DX5 = details: Homo sapiens, TAX alone
# Method: as §1
# MES-SA = details: Homo sapiens, TAX alone
# Method: as §1
compound,measurement,setting,value
"CC(=O)O[C@H]1C(=O)[C@@]2(C)[C@H]([C@H](OC(=O)c3ccccc3)[C@]3(O)C[C@H](OC(=O)[C@H](O)[C@@H](NC(=O)c4ccccc4)c4ccccc4)C(C)=C1C3(C)C)[C@]1(OC(C)=O)CO[C@@H]1C[C@@H]2O [TAX, paclitaxel]",EC50,HCT15/CL02,> 1000 nM
same,EC50,HCT15,0.85 ± 0.63 nM
same,EC50,MES-SA/DX5,10 ± 0.53 nM
same,EC50,MES-SA,1 ± 0.2 nM
